Source: patent publication US20040254128A1, “Treatment and prevention of heat shock protein-associated diseases and conditions” (priority 2001, published 2004)
Read-outs that look alike come from different tables or passages of the source.

Assays:
[1] = test system: LPS endotoxin (Escherichia coli 0111:B4)-induced plasma TNF-α; conditions: for TNF-α at 1 hr: plasma 1 hr after LPS; for TNF-α at 2 hr: plasma 2 hr after LPS
Method: LPS endotoxin (300 ng/kg) was injected intravenously into untreated dogs (◯) or simultaneously with 0.1 mg/kg E5564 (Δ) one hour after E5564 administration (□) or three hours after E5564 administration (●). Blood was drawn and analyzed for TNF-α concentration by bioassay, as is described in the Appendix, below. Each value represents the mean±S.E.M. of four animals.
In both assays, activity of the antagonist is quantitated by analysis of the cytokines induced by LPS administration.
Escherichia coli LPS (Serotype 0111:B4; phenol extracted, Cat. # L-2630) was purchased from Sigma Chem. Co. Ltd., St. Louis, Mo., USA. Lyophylized E5564 was solubilized in 5 ml of sterile water (Otsuka Pharm. Co. Ltd., Tokyo, Japan). LPS was weighed to an accuracy of 1/10 mg and solubilized in 5% glucose (Otsuka Pharm. Co. Ltd., Tokyo, Japan). The LPS solution was sonicated with a bath-type sonicator for 15 minutes after which aliquots were immediately prepared and stored at −20° C. Prior to use, the solution was sonicated for one or two minutes, and then dilutions were prepared in 5% glucose.
Nine month-old beagles were obtained from Kawashima-shoji Co. Ltd., Gifu, Japan) and housed in stainless steel wire cages (W 800 mm×D 680 mm×H 680 mm; one dog per cage) in a room with a constant temperature of 20-24° C., humidity of 45-65%, and 12 hour light-dark cycle. The animals were provided with pellet food (DS, Oriental Yeast Co., Tokyo, Japan) and water ad libitum. LPS endotoxin (300 ng/0.1 ml/kg) was injected into the vein of the right foreleg at a rate of 1-2 ml/min, and E5564 was injected into the vein of the left foreleg at a rate of 10-20 ml/min.
Immediately before or 1, 2, or 4 hours after intravenous injection of LPS and E5564, 1.5 ml of blood was drawn from the left cephalic vein. One milliliter was transferred into a tube containing 10 U of heparin (Mochida Pharm. Co. Ltd., Tokyo, Japan), centrifuged (2000×g, 5 minutes, 4° C.), and the plasma was used for bioassays for TNF-α and IL-6.
Aliquots of the plasma were tested for TNF in a bioassay based on the TNF-dependent cell death of L-P3 cells in the presence of actinomycin D. The L-P3 cell line is more sensitive to TNF-induced cell death than the L-929 cell line that is more commonly used.

[2] = Pharmacokinetics in plasma after 72 hours intravenous infusion; conditions: beagle, dog
Method: Plasma levels of E5564 were determined during and after 72 hours of intravenous infusion of 0.03 mg/kg/hr E5564 (◯, ●), 0.1 mg/kg/hr E5564 (□, ▪), and 1 mg/kg/hr E5564 (Δ, ▴) into female (closed symbols) or male (open symbols) beagle dogs. At the indicated times, blood was drawn and analyzed for E5564 concentration by extraction and analysis by HPLC. Each value represents the mean±S.E.M. of three animals.

[3] = Pharmacokinetics in plasma after single bolus intravenous injection; conditions: dog
[4] = 0.1 mg/kg E5564 iv one hour before LPS 300 ng/kg iv
[5] = 0.1 mg/kg E5564 iv three hours before LPS 300 ng/kg iv

SMILES: CCCCCC/C=C\CCCCCCCCCC(=O)N[C@H]1[C@H](OC[C@H]2O[C@H](OP(=O)(O)O)[C@H](NC(=O)CC(=O)CCCCCCCCCCC)[C@@H](OCCCCCCCCCC)[C@@H]2O)O[C@H](COC)[C@@H](OP(=O)(O)O)[C@@H]1OCC[C@@H](CCCCCCC)OC [E5564, α-D-Glucopyranose, 3-O-decyl-2-deoxy-6-O-[2-deoxy-3-O-[(3R)-3-methoxydecyl)-6-O-methyl-2-[[(11Z)-1-oxo-11-octadecenyl)amino]-4-O-phosphono-β-D-glucopyranosyl]-2-[(1,3-dioxotetradecyl)amino]-, 1-(dihydrogen phosphate)]
- Activity of the endotoxin antagonist, % of its original activity ([1]; 0.1 mg/kg E5564, LPS administered three hours after E5564 dose): about 48%
- TNF-α at 1 hr [1, 4]: 0 units/ml
- TNF-α at 2 hr [1, 4]: 0 units/ml
- TNF-α at 1 hr ([1]; 0.1 mg/kg E5564 iv simultaneously with LPS 300 ng/kg iv, n=4 dogs): 0 units/ml
- TNF-α at 2 hr ([1]; 0.1 mg/kg E5564 iv simultaneously with LPS 300 ng/kg iv): 0 units/ml
- TNF-α at 1 hr [1, 5]: 1353 ± 340 units/ml
- TNF-α at 2 hr [1, 5]: 190 ± 113 units/ml
- AUC(0-t) ([2]; female, 0.1 mg/kg): 790 ± 51 µg·h/mL
- concentration at 72 h ([2]; female, 0.1 mg/kg): 10400 ± 930 ng/mL
- half-life ([2]; female, 0.1 mg/kg): 40.9 ± 9.5 h
- AUC(0-t) ([2]; female, 0.3 mg/kg): 2620 ± 737 µg·h/mL
- concentration at 72 h ([2]; female, 0.3 mg/kg): 32400 ± 5720 ng/mL
- half-life ([2]; female, 0.3 mg/kg): 38 ± 11.6 h
- AUC(0-t) ([2]; female, 1 mg/kg): 29600 ± 1510 µg·h/mL
- concentration at 72 h ([2]; female, 1 mg/kg): 394000 ± 14200 ng/mL
- half-life ([2]; female, 1 mg/kg): 32 ± 2.8 h
- AUC(0-t) ([2]; male, 0.1 mg/kg): 1070 ± 139 µg·h/mL
- concentration at 72 h ([2]; male, 0.1 mg/kg): 13100 ± 1220 ng/mL
- half-life ([2]; male, 0.1 mg/kg): 38.4 ± 4.5 h
- AUC(0-t) ([2]; male, 0.3 mg/kg): 3310 ± 485 µg·h/mL
- concentration at 72 h ([2]; male, 0.3 mg/kg): 41300 ± 7180 ng/mL
- half-life ([2]; male, 0.3 mg/kg): 39.9 ± 11.2 h
- AUC(0-t) ([2]; male, 1 mg/kg): 27100 ± 5740 µg·h/mL
- concentration at 72 h ([2]; male, 1 mg/kg): 366000 ± 69300 ng/mL
- half-life ([2]; male, 1 mg/kg): 35.1 ± 8.7 h
- AUC ([3]; 0.1 mg/kg): 71.8 µg·h/mL
- half-life ([3]; 0.1 mg/kg): 41.7 ± 2.7 h
- AUC ([3]; 0.3 mg/kg): 271 ± 28.3 µg·h/mL
- half-life ([3]; 0.3 mg/kg): 50.4 ± 2.2 h
- AUC ([3]; 1 mg/kg): 744 µg·h/mL
- half-life ([3]; 1 mg/kg): 46.4 ± 2.7 h
